Results on one molecule are retold here after patent US7820025B2, “Methods of synthesizing an oxidant and applications thereof” (Ferrate Treatment Technologies, LLC, priority 2000, dated 2010).

The structures appear in SMILES notation.

The subject of one test is E. coli. In words: Ferrate disinfection test of harbor waters, E. coli count. The class given is cell-based. The source says: (§1) We have conducted preliminary ferrate disinfection tests of harbor waters at two locations in the Port of Cape Canaveral, Fla. Sample A was collected at the inner Port, while Sample B was collected closer to the exit at the Port nearer to the open ocean.

The test system of another test is Heterotrophic bacteria. In words: Ferrate disinfection test of harbor waters, Heterotrophic bacterial plate count (HPC). In kind it is cell-based. Particulars: for HPC: ferrate dose 2.0 mg/L FeO4^2−.
From the text: as §1

Another test deals with virus f2. Particulars: low concentrations in water; cited from earlier work.
In a further test the test system is Total Coliform. In words: Ferrate disinfection test of harbor waters, Total Coliform count. In kind it is cell-based.
From the text: as §1

In the next test the test system is biofilm. The following applies: model condensers dosed with 10^−5 M solutions of ferrate twice a day, for 5 minutes; cited from earlier work.
The next test relates to total coliforms. Particulars: water sources collected worldwide; cited from earlier work.
The test system of another test is aerobic spore-formers. Particulars: chlorine resistant bacteria; cited from earlier work.
Test [1] relates to sulfite-reducing clostridia. Particulars: chlorine resistant bacteria; cited from earlier work.
Setting [2] is: harbor water Sample A, ferrate dose 1.0 mg/L FeO4^2−.
[3] abbreviates: harbor water Sample A, ferrate dose 2.0 mg/L FeO4^2−.
Setting [4] is: harbor water Sample B, ferrate dose 1.0 mg/L FeO4^2−.
Setting [5] is: harbor water Sample B, ferrate dose 2.0 mg/L FeO4^2−.

On to `[O]=[Fe](=[O])([O-])[O-]` [Ferrate, ferrate], for which the “disinfection for E. coli (in words)” value in the test with E. coli (both samples, dose 0.5 mg/L) is listed as “effective in killing E. coli”. In addition, the “E. Coli” value is reported as below 1 MPN/100 mL in the test on E. coli (harbor water Sample A, ferrate dose 0.5 mg/L FeO4^2−); below 1 MPN/100 mL in the test on E. coli (setting [2]); below 1 MPN/100 mL in the test with E. coli (setting [3]); below 1 MPN/100 mL in the test on E. coli (harbor water Sample B, ferrate dose 0.5 mg/L FeO4^2−); below 1 MPN/100 mL with E. coli (setting [4]); below 1 MPN/100 mL with E. coli (setting [5]). Moreover, the HPC with Heterotrophic bacteria (harbor water Sample A) and with Heterotrophic bacteria (harbor water Sample B) was below 5 cfu/mL each time. The “levels of Heterotrophic bacteria after ferrate (in words)” value with Heterotrophic bacteria (samples A and B, dose of approximately 2 mg/L) was “reduced to non-detectable values”. In the test with virus f2, the “inactivation of virus f2” value is “rapidly inactivates”. Besides, the “total coliform level after ferrate addition (in words)” value in the test on Total Coliform (Sample A, ferrate dose 0.5 mg/L) is “reduced to non-detectable levels”. The “Total Coliform” value was below 1 MPN/100 mL with Total Coliform (harbor water Sample A (inner Port, Port of Cape Canaveral), ferrate dose 0.5 mg/L FeO4^2−); below 1 MPN/100 mL in the test with Total Coliform (setting [2]); below 1 MPN/100 mL in the test on Total Coliform (setting [3]); below 1 MPN/100 mL in the test with Total Coliform (harbor water Sample B (near Port exit), ferrate dose 0.5 mg/L FeO4^2−); below 1 MPN/100 mL with Total Coliform (setting [4]); below 1 MPN/100 mL with Total Coliform (setting [5]). Further, the biofilm growth result in the test on biofilm is on record as “inhibited”. Also, in the test with total coliforms, the “removal of total coliforms” value is on record as “complete removal”. In addition, the reduction of spore-formers result with aerobic spore-formers is on record as “up to 3 log units”. Also, the “killing of sulfite-reducing clostridia” value in test [1] is given as “effectively killed”.
